According to patent US10844077B2, “Thiazolyl-containing compounds for treating proliferative diseases” (Dana-Farber Cancer Institute, Inc., priority 2014, dated 2020):
Read-outs that look alike come from different tables or passages of the source.

Assays:
Type in all cases: binding
broad panel of kinases [1] = molecular target: broad panel of kinases (Homo sapiens, UniProt Q9Y4K4); conditions: MAP4K5; 1 μM
broad panel of kinases [2] = molecular target: broad panel of kinases (Homo sapiens, UniProt P42336); conditions: PIK3CA; 1 μM
broad panel of kinases [3] = molecular target: broad panel of kinases (Homo sapiens, UniProt Q9UPZ9); conditions: ICK; 1 μM
broad panel of kinases [4] = molecular target: broad panel of kinases (Homo sapiens, UniProt P31749); conditions: AKT1; 1 μM
broad panel of kinases [5] = molecular target: broad panel of kinases (Homo sapiens, UniProt P21709); conditions: EPHA1; 1 μM
broad panel of kinases (Homo sapiens, UniProt P21709), sequence (P21709 26-976 limits assumed): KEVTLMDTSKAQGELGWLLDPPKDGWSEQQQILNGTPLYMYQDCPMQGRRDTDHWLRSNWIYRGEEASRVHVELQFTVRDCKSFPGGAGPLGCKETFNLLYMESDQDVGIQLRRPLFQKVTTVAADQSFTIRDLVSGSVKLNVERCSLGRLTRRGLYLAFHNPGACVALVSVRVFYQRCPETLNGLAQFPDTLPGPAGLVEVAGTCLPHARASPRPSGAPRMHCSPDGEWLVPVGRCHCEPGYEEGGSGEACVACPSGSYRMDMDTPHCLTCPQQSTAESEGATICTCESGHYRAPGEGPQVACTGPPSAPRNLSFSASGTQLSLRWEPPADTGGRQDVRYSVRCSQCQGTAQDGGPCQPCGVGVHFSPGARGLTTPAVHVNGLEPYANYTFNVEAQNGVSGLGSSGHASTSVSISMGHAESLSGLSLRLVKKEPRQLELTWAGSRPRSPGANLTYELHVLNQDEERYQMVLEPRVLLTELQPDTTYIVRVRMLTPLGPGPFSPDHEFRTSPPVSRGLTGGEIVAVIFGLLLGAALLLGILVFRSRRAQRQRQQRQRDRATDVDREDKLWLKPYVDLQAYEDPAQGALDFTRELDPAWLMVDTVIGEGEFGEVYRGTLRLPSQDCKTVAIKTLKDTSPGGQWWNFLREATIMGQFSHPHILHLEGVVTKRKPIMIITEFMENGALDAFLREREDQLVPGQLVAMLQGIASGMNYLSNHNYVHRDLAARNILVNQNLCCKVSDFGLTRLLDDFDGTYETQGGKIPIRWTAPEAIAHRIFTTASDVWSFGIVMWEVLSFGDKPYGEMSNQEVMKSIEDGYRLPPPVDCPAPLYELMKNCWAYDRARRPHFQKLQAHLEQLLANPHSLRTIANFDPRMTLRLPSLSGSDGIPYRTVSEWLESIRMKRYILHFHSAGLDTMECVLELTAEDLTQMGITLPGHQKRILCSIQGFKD

broad panel of kinases [6] = molecular target: broad panel of kinases (Homo sapiens, UniProt O95382); conditions: ASK2; 1 μM
broad panel of kinases [7] = molecular target: broad panel of kinases (Homo sapiens, UniProt Q9HCP0); conditions: CSNK1G1; 1 μM
broad panel of kinases [8] = molecular target: broad panel of kinases (Homo sapiens, UniProt Q6P3R8); conditions: NEK5; 1 μM
broad panel of kinases [9] = molecular target: broad panel of kinases (Homo sapiens, UniProt P51813); conditions: BMX; 1 μM
broad panel of kinases [10] = molecular target: broad panel of kinases (Homo sapiens, UniProt Q86YV6); conditions: MYLK4; 1 μM
broad panel of kinases [11] = molecular target: broad panel of kinases (Homo sapiens, UniProt Q9Y6E0); conditions: MST3; 1 μM
broad panel of kinases [12] = molecular target: broad panel of kinases (Homo sapiens, UniProt P15735); conditions: PHKG2; 1 μM
broad panel of kinases [13] = molecular target: broad panel of kinases (Homo sapiens, UniProt Q05655); conditions: PRKCD; 1 μM
broad panel of kinases [14] = molecular target: broad panel of kinases (Homo sapiens, UniProt P10721, V559D/V654A); conditions: KIT(V559D, V654A); 1 μM
broad panel of kinases (Homo sapiens, UniProt P10721, V559D/V654A), sequence (P10721 26-976 V559D/V654A limits assumed): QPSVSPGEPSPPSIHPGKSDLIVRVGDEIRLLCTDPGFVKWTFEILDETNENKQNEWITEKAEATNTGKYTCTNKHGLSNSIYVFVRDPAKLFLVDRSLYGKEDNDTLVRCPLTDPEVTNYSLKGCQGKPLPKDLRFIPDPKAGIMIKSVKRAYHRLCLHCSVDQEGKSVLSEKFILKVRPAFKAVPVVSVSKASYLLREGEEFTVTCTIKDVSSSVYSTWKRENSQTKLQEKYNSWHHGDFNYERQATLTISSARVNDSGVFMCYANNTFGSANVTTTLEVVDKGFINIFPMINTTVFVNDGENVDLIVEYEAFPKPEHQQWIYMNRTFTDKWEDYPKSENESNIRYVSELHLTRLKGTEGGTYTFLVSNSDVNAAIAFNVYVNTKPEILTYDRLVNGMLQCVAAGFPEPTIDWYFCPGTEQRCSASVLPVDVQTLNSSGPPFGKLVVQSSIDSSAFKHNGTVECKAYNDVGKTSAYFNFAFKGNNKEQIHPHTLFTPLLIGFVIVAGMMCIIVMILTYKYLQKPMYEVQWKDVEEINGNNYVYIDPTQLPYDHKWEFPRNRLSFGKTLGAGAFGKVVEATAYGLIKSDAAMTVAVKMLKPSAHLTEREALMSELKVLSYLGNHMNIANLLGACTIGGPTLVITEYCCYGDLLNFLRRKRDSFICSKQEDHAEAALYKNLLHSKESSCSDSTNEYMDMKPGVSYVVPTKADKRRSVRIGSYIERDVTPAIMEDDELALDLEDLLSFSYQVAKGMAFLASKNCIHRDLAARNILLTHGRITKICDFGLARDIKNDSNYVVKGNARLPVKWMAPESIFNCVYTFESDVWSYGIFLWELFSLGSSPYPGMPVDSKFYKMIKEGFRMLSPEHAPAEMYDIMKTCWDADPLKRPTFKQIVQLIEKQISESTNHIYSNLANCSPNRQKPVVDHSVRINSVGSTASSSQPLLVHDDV

broad panel of kinases [15] = molecular target: broad panel of kinases (Homo sapiens, UniProt P10721, T670I/V559D); conditions: KIT(V559D, T670I); 1 μM
broad panel of kinases (Homo sapiens, UniProt P10721, T670I/V559D), sequence (P10721 26-976 V559D/T670I limits assumed): as the sequence (P10721 26-976 V559D/V654A limits assumed) above, with A629V, T645I counted along it

broad panel of kinases [16] = molecular target: broad panel of kinases (Homo sapiens, UniProt Q9NQU5); conditions: PAK6; 1 μM
broad panel of kinases [17] = molecular target: broad panel of kinases (Homo sapiens, UniProt P42336, H1047Y); conditions: PIK3CA(H1047Y); 1 μM
broad panel of kinases [18] = molecular target: broad panel of kinases (Homo sapiens, UniProt Q16513); conditions: PKN2; 1 μM
broad panel of kinases [19] = molecular target: broad panel of kinases (Plasmodium falciparum, UniProt P62344)
broad panel of kinases (Plasmodium falciparum, UniProt P62344), sequence (P62344 2-524 limits assumed): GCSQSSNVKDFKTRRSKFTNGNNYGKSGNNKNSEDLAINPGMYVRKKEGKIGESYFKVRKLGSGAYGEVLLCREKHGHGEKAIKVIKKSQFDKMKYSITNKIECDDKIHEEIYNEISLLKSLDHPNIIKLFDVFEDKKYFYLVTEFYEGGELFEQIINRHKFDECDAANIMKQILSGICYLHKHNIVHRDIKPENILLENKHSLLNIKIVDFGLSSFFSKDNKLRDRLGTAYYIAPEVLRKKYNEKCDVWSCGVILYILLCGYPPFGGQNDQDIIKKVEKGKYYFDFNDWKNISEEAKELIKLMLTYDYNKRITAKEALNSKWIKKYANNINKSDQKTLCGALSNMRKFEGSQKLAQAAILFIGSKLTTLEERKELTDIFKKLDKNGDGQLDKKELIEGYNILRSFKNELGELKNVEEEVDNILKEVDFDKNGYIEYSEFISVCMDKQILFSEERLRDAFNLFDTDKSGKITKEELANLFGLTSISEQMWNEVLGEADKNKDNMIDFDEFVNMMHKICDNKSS

broad panel of kinases [20] = molecular target: broad panel of kinases (Homo sapiens, UniProt Q86UX6); conditions: YANK3; 1 μM
broad panel of kinases [21] = molecular target: broad panel of kinases (Homo sapiens, UniProt Q14680); conditions: MELK; 1 μM
broad panel of kinases [22] = molecular target: broad panel of kinases (Homo sapiens, UniProt P07947); conditions: YES; 1 μM
broad panel of kinases (Homo sapiens, UniProt P07947), sequence (P07947 2-543 limits assumed): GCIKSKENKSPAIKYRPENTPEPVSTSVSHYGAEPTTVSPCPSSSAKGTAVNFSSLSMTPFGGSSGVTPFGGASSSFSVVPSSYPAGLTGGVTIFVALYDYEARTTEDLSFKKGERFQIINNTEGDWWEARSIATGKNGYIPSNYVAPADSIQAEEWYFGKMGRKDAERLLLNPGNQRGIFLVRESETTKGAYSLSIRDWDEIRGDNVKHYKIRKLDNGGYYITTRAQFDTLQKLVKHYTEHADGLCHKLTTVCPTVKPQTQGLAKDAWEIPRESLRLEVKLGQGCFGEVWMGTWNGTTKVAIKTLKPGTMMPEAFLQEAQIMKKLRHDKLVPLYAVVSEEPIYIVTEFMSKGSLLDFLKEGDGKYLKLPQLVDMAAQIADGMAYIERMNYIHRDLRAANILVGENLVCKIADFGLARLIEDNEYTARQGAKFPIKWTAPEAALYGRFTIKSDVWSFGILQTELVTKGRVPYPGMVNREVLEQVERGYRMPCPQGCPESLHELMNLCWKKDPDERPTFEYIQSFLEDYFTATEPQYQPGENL

broad panel of kinases [23] = molecular target: broad panel of kinases (Homo sapiens, UniProt Q13557); conditions: CAMK2D; 1 μM
broad panel of kinases (Homo sapiens, UniProt Q13557), sequence (Q13557 2-499 limits assumed): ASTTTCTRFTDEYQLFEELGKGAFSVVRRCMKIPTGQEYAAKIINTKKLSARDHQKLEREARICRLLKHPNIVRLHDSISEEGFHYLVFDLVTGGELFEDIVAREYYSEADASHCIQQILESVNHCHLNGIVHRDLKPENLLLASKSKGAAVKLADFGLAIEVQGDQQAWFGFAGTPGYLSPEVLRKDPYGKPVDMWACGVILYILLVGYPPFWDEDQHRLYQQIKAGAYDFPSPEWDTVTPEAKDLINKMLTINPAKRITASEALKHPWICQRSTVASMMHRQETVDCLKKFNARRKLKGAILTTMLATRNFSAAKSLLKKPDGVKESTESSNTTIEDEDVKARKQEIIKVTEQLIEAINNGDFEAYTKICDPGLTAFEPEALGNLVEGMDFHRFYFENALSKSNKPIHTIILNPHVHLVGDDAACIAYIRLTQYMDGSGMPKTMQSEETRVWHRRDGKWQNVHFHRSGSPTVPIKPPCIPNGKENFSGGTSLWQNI

broad panel of kinases [24] = molecular target: broad panel of kinases (Homo sapiens, UniProt P00533, G719S); conditions: EGFR(G719S); 1 μM
broad panel of kinases (Homo sapiens, UniProt P00533, G719S), sequence (P00533 25-1210 G719S limits assumed): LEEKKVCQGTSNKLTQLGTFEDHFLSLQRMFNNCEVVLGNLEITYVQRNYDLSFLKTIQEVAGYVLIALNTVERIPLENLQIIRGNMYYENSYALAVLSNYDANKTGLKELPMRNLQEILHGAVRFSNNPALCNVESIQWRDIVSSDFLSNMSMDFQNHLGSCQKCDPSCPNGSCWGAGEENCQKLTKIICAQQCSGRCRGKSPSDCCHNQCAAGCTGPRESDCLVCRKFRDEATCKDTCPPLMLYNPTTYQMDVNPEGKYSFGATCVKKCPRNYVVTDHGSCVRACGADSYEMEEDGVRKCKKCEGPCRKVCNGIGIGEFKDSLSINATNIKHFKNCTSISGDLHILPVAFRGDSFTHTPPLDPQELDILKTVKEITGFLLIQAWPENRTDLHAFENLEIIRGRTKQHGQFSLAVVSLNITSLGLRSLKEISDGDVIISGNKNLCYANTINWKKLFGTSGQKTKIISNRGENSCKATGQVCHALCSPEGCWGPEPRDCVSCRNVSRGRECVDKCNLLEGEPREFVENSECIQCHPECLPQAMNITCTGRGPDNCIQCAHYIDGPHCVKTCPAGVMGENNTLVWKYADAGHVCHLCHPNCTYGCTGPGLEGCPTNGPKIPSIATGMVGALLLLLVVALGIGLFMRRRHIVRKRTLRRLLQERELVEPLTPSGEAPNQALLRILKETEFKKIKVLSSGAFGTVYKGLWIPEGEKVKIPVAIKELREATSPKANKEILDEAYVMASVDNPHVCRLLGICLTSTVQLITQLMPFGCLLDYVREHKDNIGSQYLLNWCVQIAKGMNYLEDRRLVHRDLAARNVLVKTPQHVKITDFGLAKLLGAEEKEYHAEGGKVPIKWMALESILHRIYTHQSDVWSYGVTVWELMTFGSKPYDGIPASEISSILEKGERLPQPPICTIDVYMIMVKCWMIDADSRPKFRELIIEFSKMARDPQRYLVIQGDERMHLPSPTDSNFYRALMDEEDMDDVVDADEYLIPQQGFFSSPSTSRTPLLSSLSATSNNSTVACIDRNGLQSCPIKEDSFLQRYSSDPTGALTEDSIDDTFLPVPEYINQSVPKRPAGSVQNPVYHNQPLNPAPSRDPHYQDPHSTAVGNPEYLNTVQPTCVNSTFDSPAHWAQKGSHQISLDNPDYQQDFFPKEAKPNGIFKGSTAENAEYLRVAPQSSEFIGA

broad panel of kinases [25] = molecular target: broad panel of kinases (Homo sapiens, UniProt Q15303); conditions: ERBB4; 1 μM
broad panel of kinases [26] = conditions: 1 μM
broad panel of kinases [27] = molecular target: broad panel of kinases (Homo sapiens, UniProt Q8NFD2); conditions: ANKK1; 1 μM
broad panel of kinases [28] = molecular target: broad panel of kinases (Homo sapiens, UniProt Q8N4C8); conditions: MINK; 1 μM
broad panel of kinases [29] = molecular target: broad panel of kinases (Homo sapiens, UniProt Q08881); conditions: ITK; 1 μM
broad panel of kinases [30] = molecular target: broad panel of kinases (Homo sapiens, UniProt P36888, N841I); conditions: FLT3(N841I); 1 μM
broad panel of kinases [31] = molecular target: broad panel of kinases (Homo sapiens, UniProt Q9Y2H9); conditions: MAST1; 1 μM
broad panel of kinases [32] = molecular target: broad panel of kinases (Homo sapiens, UniProt Q13188); conditions: MST2; 1 μM
broad panel of kinases [33] = molecular target: broad panel of kinases (Homo sapiens, UniProt Q8IW41)
broad panel of kinases [34] = molecular target: broad panel of kinases (Homo sapiens, UniProt O15530); conditions: PDPK1; 1 μM
broad panel of kinases [35] = molecular target: broad panel of kinases (Homo sapiens, UniProt O75747); conditions: PIK3C2G; 1 μM
broad panel of kinases [36] = molecular target: broad panel of kinases (Homo sapiens, UniProt Q92772); conditions: CDKL2; 1 μM

C=CC(=O)N1CC[C@H](Nc2nc(CN3CCOCC3)cc(Nc3ncc(C(=O)Nc4c(C)cccc4C)s3)n2)C1 [Example I-2]
percent of control binding remaining (lower = stronger binding) (broad panel of kinases [1]): 82%
percent of control binding remaining (lower = stronger binding) (broad panel of kinases [2]): 100%
percent of control binding remaining (lower = stronger binding) (broad panel of kinases [3]): 86%
percent of control binding remaining (lower = stronger binding) (broad panel of kinases [4]): 95%
percent of control binding remaining (lower = stronger binding) (broad panel of kinases [5]): 0.5%
percent of control binding remaining (lower = stronger binding) (broad panel of kinases [6]): 92%
percent of control binding remaining (lower = stronger binding) (broad panel of kinases [7]): 100%
percent of control binding remaining (lower = stronger binding) (broad panel of kinases [8]): 96%
percent of control binding remaining (lower = stronger binding) (broad panel of kinases [9]): 3.6%
percent of control binding remaining (lower = stronger binding) (broad panel of kinases [10]): 98%
percent of control binding remaining (lower = stronger binding) (broad panel of kinases [11]): 100%
percent of control binding remaining (lower = stronger binding) (broad panel of kinases [12]): 96%
percent of control binding remaining (lower = stronger binding) (broad panel of kinases [13]): 96%
percent of control binding remaining (lower = stronger binding) (broad panel of kinases [14]): 7.2%
percent of control binding remaining (lower = stronger binding) (broad panel of kinases [15]): 100%
percent of control binding remaining (lower = stronger binding) (broad panel of kinases [16]): 93%
percent of control binding remaining (lower = stronger binding) (broad panel of kinases [17]): 100%
percent of control binding remaining (lower = stronger binding) (broad panel of kinases [18]): 84%
% change compared to control (broad panel of kinases [19]): 24%
percent of control binding remaining (lower = stronger binding) (broad panel of kinases [20]): 83%
percent of control binding remaining (lower = stronger binding) (broad panel of kinases [21]): 84%
percent of control binding remaining (lower = stronger binding) (broad panel of kinases [22]): 0%
percent of control binding remaining (lower = stronger binding) (broad panel of kinases [23]): 91%
percent of control binding remaining (lower = stronger binding) (broad panel of kinases [24]): 17%
percent of control binding remaining (lower = stronger binding) (broad panel of kinases [25]): 0.6%
percent of control binding remaining (lower = stronger binding) (broad panel of kinases [26]; EGFR(L747-E749del, A750P)): 2.2%
percent of control binding remaining (lower = stronger binding) (broad panel of kinases [26]; EGFR(L747-S752del, P753S)): 3.6%
percent of control binding remaining (lower = stronger binding) (broad panel of kinases [26]; EGFR(L747-T751del, Sins)): 2%
percent of control binding remaining (lower = stronger binding) (broad panel of kinases [26]; FLT3(ITD)): 92%
percent of control binding remaining (lower = stronger binding) (broad panel of kinases [27]): 94%
percent of control binding remaining (lower = stronger binding) (broad panel of kinases [28]): 71%
percent of control binding remaining (lower = stronger binding) (broad panel of kinases [29]): 100%
percent of control binding remaining (lower = stronger binding) (broad panel of kinases [30]): 100%
percent of control binding remaining (lower = stronger binding) (broad panel of kinases [31]): 98%
percent of control binding remaining (lower = stronger binding) (broad panel of kinases [32]): 69%
% change compared to control (broad panel of kinases [33]): 100%
percent of control binding remaining (lower = stronger binding) (broad panel of kinases [34]): 98%
percent of control binding remaining (lower = stronger binding) (broad panel of kinases [35]): 92%
percent of control binding remaining (lower = stronger binding) (broad panel of kinases [36]): 88%

C=CC(=O)N1CC[C@H](Nc2nccc(Nc3ncc(C(=O)Nc4c(C)cccc4C)s3)n2)C1 [Example I-3]
percent of control binding remaining (lower = stronger binding) (broad panel of kinases [1]): 96%
percent of control binding remaining (lower = stronger binding) (broad panel of kinases [2]): 100%
percent of control binding remaining (lower = stronger binding) (broad panel of kinases [3]): 87%
percent of control binding remaining (lower = stronger binding) (broad panel of kinases [4]): 95%
percent of control binding remaining (lower = stronger binding) (broad panel of kinases [5]): 1.6%
percent of control binding remaining (lower = stronger binding) (broad panel of kinases [6]): 98%
percent of control binding remaining (lower = stronger binding) (broad panel of kinases [7]): 100%
percent of control binding remaining (lower = stronger binding) (broad panel of kinases [8]): 87%
percent of control binding remaining (lower = stronger binding) (broad panel of kinases [9]): 4.9%
percent of control binding remaining (lower = stronger binding) (broad panel of kinases [10]): 100%
percent of control binding remaining (lower = stronger binding) (broad panel of kinases [11]): 100%
percent of control binding remaining (lower = stronger binding) (broad panel of kinases [12]): 94%
percent of control binding remaining (lower = stronger binding) (broad panel of kinases [13]): 95%
percent of control binding remaining (lower = stronger binding) (broad panel of kinases [14]): 25%
percent of control binding remaining (lower = stronger binding) (broad panel of kinases [15]): 100%
percent of control binding remaining (lower = stronger binding) (broad panel of kinases [16]): 84%
percent of control binding remaining (lower = stronger binding) (broad panel of kinases [17]): 96%
percent of control binding remaining (lower = stronger binding) (broad panel of kinases [18]): 100%
% change compared to control (broad panel of kinases [19]): 8.1%
percent of control binding remaining (lower = stronger binding) (broad panel of kinases [20]): 91%
percent of control binding remaining (lower = stronger binding) (broad panel of kinases [21]): 82%
percent of control binding remaining (lower = stronger binding) (broad panel of kinases [22]): 0%
percent of control binding remaining (lower = stronger binding) (broad panel of kinases [23]): 92%
percent of control binding remaining (lower = stronger binding) (broad panel of kinases [24]): 7.6%
percent of control binding remaining (lower = stronger binding) (broad panel of kinases [25]): 0.2%
percent of control binding remaining (lower = stronger binding) (broad panel of kinases [26]; EGFR(L747-E749del, A750P)): 1.4%
percent of control binding remaining (lower = stronger binding) (broad panel of kinases [26]; EGFR(L747-S752del, P753S)): 3.6%
percent of control binding remaining (lower = stronger binding) (broad panel of kinases [26]; EGFR(L747-T751del, Sins)): 4.2%
percent of control binding remaining (lower = stronger binding) (broad panel of kinases [26]; FLT3(ITD)): 98%
percent of control binding remaining (lower = stronger binding) (broad panel of kinases [27]): 100%
percent of control binding remaining (lower = stronger binding) (broad panel of kinases [28]): 66%
percent of control binding remaining (lower = stronger binding) (broad panel of kinases [29]): 98%
percent of control binding remaining (lower = stronger binding) (broad panel of kinases [30]): 100%
percent of control binding remaining (lower = stronger binding) (broad panel of kinases [31]): 93%
percent of control binding remaining (lower = stronger binding) (broad panel of kinases [32]): 94%
% change compared to control (broad panel of kinases [33]): 100%
percent of control binding remaining (lower = stronger binding) (broad panel of kinases [34]): 87%
percent of control binding remaining (lower = stronger binding) (broad panel of kinases [35]): 97%
percent of control binding remaining (lower = stronger binding) (broad panel of kinases [36]): 78%
